Assay results from patent US8871728B2, “Non-peptide macrocyclic histone deacetylese (HDAC) inhibitors and methods of making and using thereof” (Georgia Tech Research Corporation, priority 2007, dated 2014).
Read-outs that look alike come from different tables or passages of the source.

Legend:
HDAC8 = HDAC8 (Homo sapiens (Human), UniProt Q9BY41); assay: Fluor de Lys HDAC8 inhibition; assay type: biochemical; conditions: for IC50: read-out: HDAC 8; for HDAC8: Nuclear Extract Isoform Selectivity: ratio of IC50 HDAC8 to nuclear extract
Chain of HDAC8 (Q9BY41 whole entry, canonical isoform): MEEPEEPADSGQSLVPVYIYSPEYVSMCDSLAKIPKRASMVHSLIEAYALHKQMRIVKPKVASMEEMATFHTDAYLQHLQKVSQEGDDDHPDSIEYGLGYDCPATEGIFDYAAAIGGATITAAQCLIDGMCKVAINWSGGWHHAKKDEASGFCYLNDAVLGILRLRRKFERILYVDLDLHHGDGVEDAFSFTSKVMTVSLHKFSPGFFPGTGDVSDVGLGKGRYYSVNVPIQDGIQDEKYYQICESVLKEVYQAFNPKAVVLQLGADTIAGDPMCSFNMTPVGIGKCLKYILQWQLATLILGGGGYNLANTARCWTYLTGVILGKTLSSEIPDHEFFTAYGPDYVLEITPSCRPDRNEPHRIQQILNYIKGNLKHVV

lung fibroblasts = assay: Cell viability, trypan blue exclusion; assay type: cell-based; conditions: Fibroblast; untransformed cells
From the text: (§1) Most importantly, the compounds we less toxic to untransformed cell-lines (lung fibroblast and HMEC).
(§2) Most importantly, these compounds are less toxic to untransformed cell-lines (lung fibroblast and HMEC) that we have studied to date.

DU 145 cells = assay: Cell viability, trypan blue exclusion; assay type: cell-based; conditions: Homo sapiens
From the text: as §1, §2

SKMES 1 = assay: Cell viability, trypan blue exclusion; assay type: cell-based; conditions: Homo sapiens, SK-MES-1
From the text: as §1, §2

NCI-H69 = assay: Cell viability, trypan blue exclusion; assay type: cell-based; conditions: Homo sapiens
From the text: as §1, §2

HMEC = assay: Cell viability, trypan blue exclusion; assay type: cell-based; conditions: Homo sapiens; untransformed cells
From the text: as §1, §2

[1] = system: HeLa nuclear extract HDAC1/2; assay: Fluor de Lys HDAC inhibition, HeLa nuclear extract; assay type: biochemical, human
From the text: (§3) Fluor de Lys™ is a fluorescence based HDAC activity assay comprising a combination of fluorogenic Histone deAcetylase Lysyl substrate and a developer. The kit is a highly sensitive and convenient alternative to radiolabeled, acetylated histones or peptide/HPLC methods for the assay of histone deacetylases. This assay is based on the ability of HeLa nuclear extract, which is enriched in HDAC activity, to mediate the deacetylation of the acetylated lysine side chain of the Fluor de Lys substrate. The assay procedure requires two steps. First, incubation of the HeLa nuclear extract with the Fluor de Lys substrate results in substrate deacetylation and thus sensitizes it to the second step. In the second step, treatment of the deacetylated substrate with the Fluor de Lys developer produces a fluorophore. The substrate-developer reaction, under normal circumstances goes to completion in less than 1 min at 25° C. The kit used was the Fluorimetric Assay/Drug Discovery Kit—AK-500 Manual Fluorescent Assay System available from BIOMOL® International, Plymouth Meeting, Pa.
Each IC50 value was obtained by averaging three independent experiments.

HDAC6 = HDAC6 (Homo sapiens (Human), UniProt Q9UBN7); assay: Fluor de Lys HDAC6 inhibition; assay type: biochemical; conditions: for IC50: Table 5, read-out: HDAC 6; for HDAC6: Nuclear Extract Isoform Selectivity: ratio of IC50 HDAC6 to nuclear extract
Chain of HDAC6 (Q9UBN7 whole entry, canonical isoform): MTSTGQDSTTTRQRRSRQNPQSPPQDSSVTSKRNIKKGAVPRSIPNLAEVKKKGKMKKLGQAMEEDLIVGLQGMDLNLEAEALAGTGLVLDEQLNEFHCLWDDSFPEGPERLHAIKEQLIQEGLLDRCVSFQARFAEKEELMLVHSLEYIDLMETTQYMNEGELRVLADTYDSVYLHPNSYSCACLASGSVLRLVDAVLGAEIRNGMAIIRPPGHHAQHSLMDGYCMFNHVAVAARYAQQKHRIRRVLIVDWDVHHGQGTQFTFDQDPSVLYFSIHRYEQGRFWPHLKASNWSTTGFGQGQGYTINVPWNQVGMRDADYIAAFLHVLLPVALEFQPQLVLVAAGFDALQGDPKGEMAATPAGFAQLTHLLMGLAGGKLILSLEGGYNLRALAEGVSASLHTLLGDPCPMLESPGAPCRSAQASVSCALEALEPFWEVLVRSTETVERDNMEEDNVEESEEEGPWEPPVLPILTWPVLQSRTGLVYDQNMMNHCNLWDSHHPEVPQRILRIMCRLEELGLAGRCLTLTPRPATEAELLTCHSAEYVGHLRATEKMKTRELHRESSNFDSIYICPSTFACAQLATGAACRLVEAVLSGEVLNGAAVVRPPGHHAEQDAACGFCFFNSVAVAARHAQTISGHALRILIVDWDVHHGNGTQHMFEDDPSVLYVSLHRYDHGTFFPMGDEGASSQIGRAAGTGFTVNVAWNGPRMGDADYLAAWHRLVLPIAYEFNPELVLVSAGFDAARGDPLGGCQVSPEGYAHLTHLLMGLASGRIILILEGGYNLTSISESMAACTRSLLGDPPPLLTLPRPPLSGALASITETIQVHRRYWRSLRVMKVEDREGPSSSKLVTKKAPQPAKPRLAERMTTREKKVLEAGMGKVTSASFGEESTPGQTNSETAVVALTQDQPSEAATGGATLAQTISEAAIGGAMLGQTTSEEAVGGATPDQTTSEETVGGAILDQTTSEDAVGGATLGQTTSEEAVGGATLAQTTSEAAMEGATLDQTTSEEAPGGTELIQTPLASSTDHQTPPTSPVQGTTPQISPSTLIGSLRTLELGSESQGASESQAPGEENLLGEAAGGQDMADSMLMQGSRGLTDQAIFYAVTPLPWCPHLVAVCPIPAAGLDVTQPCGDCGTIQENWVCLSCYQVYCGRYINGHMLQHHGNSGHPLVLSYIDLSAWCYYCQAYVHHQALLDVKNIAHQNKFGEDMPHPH
From the text: as §3
The ketolides 56 were also evaluated for their HDAC inhibitory activity against HDACs 1 and 2 from HeLa cell nuclear extract, HDAC6, and HDAC8 using the Fluor de Lys assay.

lung (A549) = assay: Cell viability, MTS colorimetric assay; assay type: cell-based
Procedure: (§4) The effect of compounds 56a-e on cancer cell lines: prostate (DU-145), lung (A549), and breast cancer (MCF-7) and a non-transformed cell, human lung fibroblast cell (Hs1.Lu) were also evaluated.

prostate (DU-145) = assay: Cell viability, MTS colorimetric assay; assay type: cell-based
Procedure: as §4

breast cancer (MCF-7) = assay: Cell viability, MTS colorimetric assay; assay type: cell-based
Procedure: as §4

[2] = system: Plasmodium falciparum (W2 clone), chloroquine-resistant; assay: Plasmodium growth inhibition, parasite lactate dehydrogenase assay (Malstat); assay type: cell-based; conditions: for Plasmodium falciparum (W2 clone) IC50: chloroquine-resistant; for S.I. (W2): selective toxicity index, Vero versus W2, value in brackets
Procedure: (§5) The compounds described herein were also evaluated for parasitic activity against Plasmodium falciparum and Leismania donovani. P. falciparum and L. donovani are the causative parasites of malaria and leishmaniasis, two human diseases which constitute a serious threat to public health in tropical and sub-tropical countries. Antimalarial activity was evaluated in vitro using chloroquine-sensitive (D6, Sierra Leone) and chloroquine-resistant (W2, Indochina) strains of P. falciparum. Antileishmanial activity was evaluated in vitro against the promastigote stage of L. donovani.
(§6) Plasmodium growth inhibition was determined by a parasite lactate dehydrogenase assay using Malstat reagent. Inhibition of viability of the promastigote stage of L. donovani was determined using standard Alamar blue assay, modified to a fluorometric assay.
as §5, with “Macrocyclic histone deacetylase inhibitors” for “The compounds described herein”, “were” for “were also”
as §6

[3] = system: Plasmodium falciparum (D6 clone), chloroquine-sensitive; assay: as above; assay type: cell-based; conditions: for Plasmodium falciparum (D6 clone) IC50: chloroquine-sensitive; for S.I. D6: selective toxicity index, Vero versus D6
Procedure: as §5, §6
as §5, with “Macrocyclic histone deacetylase inhibitors” for “The compounds described herein”, “were” for “were also”
as §6

[4] = system: promastigote stage of L. donovani; assay: Antileishmanial Alamar blue fluorometric assay; assay type: cell-based; conditions: promastigotes
Procedure: as §5, §6
as §5, with “Macrocyclic histone deacetylase inhibitors” for “The compounds described herein”, “were” for “were also”
as §6

[5] = average of three independent experiments, Table 4
[6] = HeLa nuclear extract, average of three independent experiments, Table 4, read-out: HDAC ½
[7] = HDACs 1 and 2 from HeLa cell nuclear extract, Table 5, read-out: Nuclear Extract

## CC[C@H]1OC(=O)[C@H](C)[C@@H](O)[C@H](C)[C@@H](O[C@@H]2O[C@H](C)C[C@H](N(C)Cc3ccc(-c4cn(CCCCCCCC(=O)NO)nn4)cc3)[C@H]2O)[C@](C)(OC)C[C@@H](C)C(=O)[C@H](C)[C@@H](O)[C@]1(C)O [Compound 28, Descladinose-Clarithromycin-N-Phenyltriazolyloctahydroxamic acid]
HDAC8; [5]
  IC50: 4420 nM
Lung fibroblasts
  EC50: > 10000 nM
DU 145 cells
  EC50: 5780 nM
SKMES 1
  EC50: 4450 nM
NCI-H69
  EC50: 5090 nM
HMEC
  EC50: > 10000 nM
[1]; [6]
  IC50: 123 nM

## CC[C@H]1OC(=O)[C@H](C)[C@@H](O[C@H]2C[C@@](C)(OC)[C@@H](O)[C@H](C)O2)[C@H](C)[C@@H](O[C@@H]2O[C@H](C)C[C@H](N(C)Cc3ccc(-c4cn(CCCCCCCCC(=O)NO)nn4)cc3)[C@H]2O)[C@](C)(OC)C[C@@H](C)C(=O)[C@H](C)[C@@H](O)[C@]1(C)O [Compound 29, Clarithromycin-N-Phenyltriazolylnonahydroxamic acid]
HDAC8; [5]
  IC50: 10600 nM
Lung fibroblasts
  EC50: > 10000 nM
DU 145 cells
  EC50: 8140 nM
SKMES 1
  EC50: 7120 nM
NCI-H69
  EC50: 7290 nM
HMEC
  EC50: > 10000 nM
[1]; [6]
  IC50: 170 nM

## CCC1OC(=O)C(C)C(=O)C(C)C(OC2OC(C)CC(N(C)Cc3ccc(-c4cn(CCCCCC(=O)NO)nn4)cc3)C2O)C(C)(OC)CC(C)C2=NCCN3C(=O)OC1(C)C3C2C (centres unmarked) [Compound 56a, Tricyclic Ketolide-N-benzyltriazolylhexahydroxamic acid]
HDAC8; Table 5
  IC50: 796 nM
HDAC8
  HDAC8: Nuclear Extract Isoform Selectivity: 102.5
HDAC6
  IC50: 1180 nM
  HDAC6: Nuclear Extract Isoform Selectivity: 151.9
Lung (A549)
  EC50: 1170 nM
Prostate (DU-145)
  EC50: 1640 nM
Breast cancer (MCF-7)
  EC50: 1260 nM
[1]; [7]
  IC50: 7.77 nM
[2]
  Plasmodium falciparum (W2 clone) IC50: 1.80 µg/mL
[3]
  Plasmodium falciparum (D6 clone) IC50: 0.96 µg/mL
  S.I. D6: >5.0 (no value)

## CCC1OC(=O)C(C)C(=O)C(C)C(OC2OC(C)CC(N(C)Cc3ccc(-c4cn(CCCCCCC(=O)NO)nn4)cc3)C2O)C(C)(OC)CC(C)C2=NCCN3C(=O)OC1(C)C3C2C (centres unmarked) [Compound 56b, Tricyclic Ketolide-N-benzyltriazolylheptahydroxamic acid]
HDAC8; Table 5
  IC50: 545 nM
HDAC8
  HDAC8: Nuclear Extract Isoform Selectivity: 528.7
HDAC6
  IC50: 729 nM
  HDAC6: Nuclear Extract Isoform Selectivity: 707.5
Lung (A549)
  EC50: 660 nM
Prostate (DU-145)
  EC50: 820 nM
Breast cancer (MCF-7)
  EC50: 750 nM
[1]; HDACs 1 and 2 from HeLa cell nuclear extract, Table 5
  Nuclear Extract (nM): single digit nanomolar
[1]; [7]
  IC50: 1.03 nM
[2]
  Plasmodium falciparum (W2 clone) IC50: 0.12 µg/mL
  S.I. (W2): > 39.7
[3]
  Plasmodium falciparum (D6 clone) IC50: 0.14 µg/mL
  S.I. D6: > 34

## CCC1OC(=O)C(C)C(=O)C(C)C(OC2OC(C)CC(N(C)Cc3ccc(-c4cn(CCCCCCCC(=O)NO)nn4)cc3)C2O)C(C)(OC)CC(C)C2=NCCN3C(=O)OC1(C)C3C2C (centres unmarked) [Compound 56c, Tricyclic Ketolide-N-benzyltriazolyloctahydroxamic acid]
HDAC8; Table 5
  IC50: 1910 nM
HDAC8
  HDAC8: Nuclear Extract Isoform Selectivity: 18.3
HDAC6
  IC50: 1710 nM
  HDAC6: Nuclear Extract Isoform Selectivity: 16.4
Lung (A549)
  EC50: 1640 nM
Prostate (DU-145)
  EC50: 3700 nM
Breast cancer (MCF-7)
  EC50: 1350 nM
[1]; [7]
  IC50: 104 nM
[2]
  Plasmodium falciparum (W2 clone) IC50: 1.50 µg/mL
  S.I. (W2): > 3.2
[3]
  Plasmodium falciparum (D6 clone) IC50: 1.20 µg/mL
  S.I. D6: > 4.0
[4]
  Antileshmanial activity IC50: 19 µg/mL
  Antileshmanial activity IC90: 36 µg/mL

## CCC1OC(=O)C(C)C(=O)C(C)C(OC2OC(C)CC(N(C)Cc3ccc(-c4cn(CCCCCCCCC(=O)NO)nn4)cc3)C2O)C(C)(OC)CC(C)C2=NCCN3C(=O)OC1(C)C3C2C (centres unmarked) [Compound 56d, Tricyclic Ketolide-N-benzyltriazolylnonahydroxamic acid]
HDAC8; Table 5
  IC50: 2860 nM
HDAC8
  HDAC8: Nuclear Extract Isoform Selectivity: 17.5
HDAC6
  IC50: 1920 nM
  HDAC6: Nuclear Extract Isoform Selectivity: 11.7
Lung (A549)
  EC50: 2480 nM
Prostate (DU-145)
  EC50: 3890 nM
Breast cancer (MCF-7)
  EC50: 2560 nM
[1]; [7]
  IC50: 164 nM
[2]
  Plasmodium falciparum (W2 clone) IC50: 1.30 µg/mL
  S.I. (W2): > 3.7
[3]
  Plasmodium falciparum (D6 clone) IC50: 1.20 µg/mL
  S.I. D6: > 4.0
[4]
  Antileshmanial activity IC50: 14 µg/mL
  Antileshmanial activity IC90: 32 µg/mL

## CCC1OC(=O)C(C)C(=O)C(C)C(OC2OC(C)CC(N(C)Cc3ccc(-c4cn(CCCCCCCCCC(=O)NO)nn4)cc3)C2O)C(C)(OC)CC(C)C2=NCCN3C(=O)OC1(C)C3C2C (centres unmarked) [Compound 56e, Tricyclic Ketolide-N-benzyltriazolyldecahydroxamic acid]
HDAC8; Table 5
  IC50: 4560 nM
HDAC8
  HDAC8: Nuclear Extract Isoform Selectivity: 21.9
HDAC6
  IC50: 3200 nM
  HDAC6: Nuclear Extract Isoform Selectivity: 15.4
Lung (A549)
  EC50: 2810 nM
Prostate (DU-145)
  EC50: 4830 nM
Breast cancer (MCF-7)
  EC50: 3680 nM
[1]; [7]
  IC50: 208 nM
[2]
  Plasmodium falciparum (W2 clone) IC50: 0.84 µg/mL
  S.I. (W2): > 5.7
[3]
  Plasmodium falciparum (D6 clone) IC50: 1.20 µg/mL
  S.I. D6: > 4.0
[4]
  Antileshmanial activity IC50: 4.8 µg/mL
  Antileshmanial activity IC90: 23 µg/mL
